Measured values from patent US8153773B2, “Synthesis and use of anti-reverse phosphorothioate analogs of the messenger RNA cap” (Board of Supervisors of Louisiana State University and …, priority 2007, dated 2012).

Experiments:
HC11 cells [1] = experiment: Polysomal distribution of capped luciferase mRNA in HC11 cells; format: cell-based, mouse; conditions: HC11 cells lysed 4 h after electroporation, sucrose gradient
Procedure: To separate ribosomal subunits and initiation complexes, 4×10^6 HC11 cells were treated for 2 min with ice-cold PBS containing 0.1 mg/ml cycloheximide, washed twice with the same medium, and lysed in 600 μl of 0.3 M NaCl, 15 mM Tris-HCl (pH 7.6), 15 mM MgCl2, 1% Triton X-100, 1 mg/ml heparin, and 0.1 mg/ml cycloheximide. After centrifugation at 14,000×g for 10 min, the supernatant was layered on a 15-45% sucrose gradient in the same buffer but lacking Triton X-100 and centrifuged in a Beckman SW41 Ti rotor at 38,000 rpm at 4° C. for 2 h. Gradients were fractionated with continuous monitoring of absorbance at 260 nm. RNA from each fraction (1 ml) was isolated and analyzed by real time PCR.
We used an independent method to validate the observation that m2^7,2′-OGppspG-capped mRNAs were translated more efficiently, namely, their polysomal distribution (FIGS. 9A-9E). An increase in the rate of initiation relative to elongation or termination results in a shift of the mRNA from lighter to heavier polysomes. See H. Lodish, “Model for the regulation of mRNA translation applied to haemoglobin synthesis,” Nature, vol. 251, pp. 385-388 (1974). The type of cap structure is not expected to affect the rate of elongation. Thus, a shift to higher polysomes indicates faster initiation.
Luc A60 mRNA capped with m^7 Gp3G, m2^7,2′-OGp3G or m2^7,2′-OGppspG (D2) was electroporated into HC11 cells. […]

HC11 cells [2] = experiment: Time course of luciferase expression after nucleoporation of HC11 cells; format: cell-based, mouse; conditions: luciferase activity up to 10 h after nucleoporation, normalized for Luc-A60 delivered
Procedure: Two methods, electroporation and nucleoporation, were used to deliver RNA into cells. In case of electroporation, 5 μg of RNA were introduced into 10^7 HC11 cells in a total volume 400 μl of serum-reduced RPMI 1640 medium in a Gene pulser cuvette (4 mm gap) with a Bio-Rad Genepulser™ set at 0.22 kV and 960 μF. Following discharge, the cells were washed twice with PBS, centrifuged for 2 min 300×g at room temperature, resuspended in prewarmed complete medium, and placed at 37° C. Nucleoporation was performed with an Amaxa Nucleofector II (Amaxa Biosystems) in accordance with manufacture's recommendations. One microgram of RNA was introduced into 10^6 HC11 cells with Nucleofector Solution V and the set of recommended regimens (program T-024).
For cytoplasmic RNA extraction, 2×10^5 cells were lysed in 175 μl of lysis buffer (50 mM Tris-HCl, pH 8.0, 140 mM NaCl, 1.5 mM MgCl2, 0.5% (v/v) Igepal (Sigma), and 1 mM dithiothreitol). […] Luciferase activity of cell extracts was measured according to the manufacturer's protocol (Promega).
We also determined the overall accumulation of luciferase, as measured by its enzymatic activity, as a function of time for mRNAs capped with m2^7,2′-OGp3G, m2^7,2′-OGppspG (D1), and m2^7,2′-OGppspG (D2). […] Luciferase activity measured in the supernatant was normalized for the amount of Luc-A60 delivered into the cells. […]

| Molecule | polysomal distribution of capped Luc A60 mRNA (HC11 cells [1]) | overall accumulation of luciferase (HC11 cells [2]) |
| --- | --- | --- |
| CO[C@@H]1[C@H](O)[C@@H](COP(=O)(O)OP(=O)([O-])OP(=O)(O)OC[C@H]2O[C@@H](n3cnc4c(=O)[nH]c(N)nc43)[C@H](O)[C@@H]2O)O[C@H]1n1c[n+](C)c2c(O)nc(N)nc21 [m2^7,2′-OGpppG, reference compound] | shifted to higher polysomes | – |
| m2^7,2′-OGppspG (D2) [Compound 5b] | shifted to even higher polysomes | The most luciferase accumulated |
